Test results taken from patent publication US10537563B2, “Methods for treating ocular disease using inhibitors of CSF-1R” (NOVARTIS AG, priority 2016, dated 2020).

Tests used:
[1] = target: JNK2alpha2 (Homo sapiens, UniProt P45984); assay: In vitro kinase assay (Table 1); assay type: biochemical
[2] = target: T1, BAF/Tel-TRKB-Q2/sACP (Homo sapiens, UniProt Q16620); assay: BaF3 proliferation assay; assay type: cell-based, murine
T1 construct: fused on or other part: P41212 (Transcription factor ETV6)

[3] = target: T2, BAF/Tel-ZAP70-1.1/sACP (Homo sapiens, UniProt P43403); assay: BaF3 proliferation assay; assay type: cell-based, murine
T2 construct: fused on or other part: P41212 (Transcription factor ETV6)

[4] = target: RAF1_4_CR (Homo sapiens, UniProt P04049); assay: In vitro kinase assay (Table 1); assay type: biochemical
[5] = target: Dyrk3 (Homo sapiens, UniProt O43781); assay: In vitro kinase assay (Table 1); assay type: biochemical
[6] = system: human macrophages; assay: CSF-1 and IL-34 mediated macrophage survival; assay type: cell-based; conditions: 0.1 to 10 μM; 4 donors
Procedure: Freshly isolated human PBMCs were used to purify human monocytes by negative selection using an indirect magnetic labeling system. […] Soluble factors such as cytokines (VEGFa, IL-6 etc.) and chemokines (IL-8, MCP-1, MMP9 etc.) in the culture supernatant were measured using commercial ELISA kits. The in vitro survival of human macrophages was measured using a commercially available CellTiter-Glo® system. Most observed results were repeated in multiple donors (n>5).
A dose range (0 to 100 ng/ml) of CSF-1 or IL-34 was tested and macrophage survival positively correlated with increasing dose of CSF-1 or IL-34 with no difference between the 2 factors observed.

[7] = target: T3, BAF/Tel-IGF1R-FL-N.1/sACP (Homo sapiens, UniProt P08069); assay: BaF3 proliferation assay; assay type: cell-based, murine
T3 construct: BAF/Tel-IGF1R-FL- N.1/sACP; fused on or other part: P41212 (Transcription factor ETV6)

[8] = target: T4, BAF/Tel-FGR-2.1/sACP (Homo sapiens, UniProt P09769); assay: BaF3 proliferation assay; assay type: cell-based, murine
T4 construct: fused on or other part: P41212 (Transcription factor ETV6)

[9] = target: T5, BAF/Tel-JAK1-S1.2/sACP (Homo sapiens, UniProt P23458); assay: BaF3 proliferation assay; assay type: cell-based, murine
T5 construct: fused on or other part: P41212 (Transcription factor ETV6)

[10] = target: T6, BAF/Tel-KDR-Q4/sACP (Homo sapiens, UniProt P35968); assay: BaF3 proliferation assay; assay type: cell-based, murine
T6 construct: fused on or other part: P41212 (Transcription factor ETV6)

[11] = target: Src (Homo sapiens, UniProt P12931); assay: In vitro kinase assay (Table 1); assay type: biochemical
[12] = target: T7, BAF/Tel-FLT4-Q2/sACP (Homo sapiens, UniProt P35916); assay: BaF3 proliferation assay; assay type: cell-based, murine
T7 construct: fused on or other part: P41212 (Transcription factor ETV6)

[13] = target: cRaf (Homo sapiens, UniProt P04049); assay: In vitro kinase assay (Table 1); assay type: biochemical
[14] = target: T8, BAF/Tel-FLT1-Q1/sACP (Homo sapiens, UniProt P17948); assay: BaF3 proliferation assay; assay type: cell-based, murine
T8 construct: fused on or other part: P41212 (Transcription factor ETV6)
T8 sequence (P17948 827-1158 limits assumed, change not shown): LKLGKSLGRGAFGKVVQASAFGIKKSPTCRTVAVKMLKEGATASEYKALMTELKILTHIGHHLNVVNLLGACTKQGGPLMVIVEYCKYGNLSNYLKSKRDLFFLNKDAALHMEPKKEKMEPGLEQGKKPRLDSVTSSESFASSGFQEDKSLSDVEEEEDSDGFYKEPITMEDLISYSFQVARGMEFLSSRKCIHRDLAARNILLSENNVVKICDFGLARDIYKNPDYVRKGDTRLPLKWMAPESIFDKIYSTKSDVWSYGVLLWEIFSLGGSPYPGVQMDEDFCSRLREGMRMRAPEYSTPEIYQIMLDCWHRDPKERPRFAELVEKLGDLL

T2 sequence (P43403 338-600 limits assumed, change not shown): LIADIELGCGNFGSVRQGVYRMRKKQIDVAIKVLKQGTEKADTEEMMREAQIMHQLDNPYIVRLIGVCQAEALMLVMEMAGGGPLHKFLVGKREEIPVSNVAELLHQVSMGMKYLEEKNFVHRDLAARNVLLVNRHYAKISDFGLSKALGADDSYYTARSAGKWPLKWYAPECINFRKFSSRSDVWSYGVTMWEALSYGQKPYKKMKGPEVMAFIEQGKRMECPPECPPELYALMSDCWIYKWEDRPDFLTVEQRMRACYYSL
Chain of JNK2alpha2 (P45984 whole entry): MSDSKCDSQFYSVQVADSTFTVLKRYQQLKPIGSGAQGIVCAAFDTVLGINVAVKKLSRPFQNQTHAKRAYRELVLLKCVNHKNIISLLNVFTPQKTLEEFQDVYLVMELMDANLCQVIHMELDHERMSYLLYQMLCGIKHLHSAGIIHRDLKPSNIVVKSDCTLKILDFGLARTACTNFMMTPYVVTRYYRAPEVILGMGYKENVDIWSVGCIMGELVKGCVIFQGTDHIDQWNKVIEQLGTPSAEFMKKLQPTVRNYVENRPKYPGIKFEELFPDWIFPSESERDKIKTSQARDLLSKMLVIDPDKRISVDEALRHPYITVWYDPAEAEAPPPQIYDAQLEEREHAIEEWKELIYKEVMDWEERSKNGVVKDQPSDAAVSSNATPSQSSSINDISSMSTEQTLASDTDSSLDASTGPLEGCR
T3 sequence (P08069 999-1274 limits assumed, change not shown): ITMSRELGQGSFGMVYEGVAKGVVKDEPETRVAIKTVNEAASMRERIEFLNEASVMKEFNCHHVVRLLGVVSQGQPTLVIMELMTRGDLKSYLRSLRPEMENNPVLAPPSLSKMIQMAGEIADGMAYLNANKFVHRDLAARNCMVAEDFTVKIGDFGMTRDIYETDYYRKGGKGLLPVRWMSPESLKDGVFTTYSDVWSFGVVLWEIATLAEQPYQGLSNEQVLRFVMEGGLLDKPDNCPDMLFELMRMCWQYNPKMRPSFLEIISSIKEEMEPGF
T5 sequence (P23458 875-1154 limits assumed, change not shown): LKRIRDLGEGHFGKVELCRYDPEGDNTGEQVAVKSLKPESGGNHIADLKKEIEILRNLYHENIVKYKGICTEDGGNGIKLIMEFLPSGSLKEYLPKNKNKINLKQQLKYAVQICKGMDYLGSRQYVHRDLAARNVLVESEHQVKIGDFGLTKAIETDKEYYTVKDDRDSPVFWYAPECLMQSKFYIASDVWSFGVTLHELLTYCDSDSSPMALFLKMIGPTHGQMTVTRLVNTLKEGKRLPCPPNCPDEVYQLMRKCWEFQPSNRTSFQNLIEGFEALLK
Chain of Src (P12931 whole entry, species assumed): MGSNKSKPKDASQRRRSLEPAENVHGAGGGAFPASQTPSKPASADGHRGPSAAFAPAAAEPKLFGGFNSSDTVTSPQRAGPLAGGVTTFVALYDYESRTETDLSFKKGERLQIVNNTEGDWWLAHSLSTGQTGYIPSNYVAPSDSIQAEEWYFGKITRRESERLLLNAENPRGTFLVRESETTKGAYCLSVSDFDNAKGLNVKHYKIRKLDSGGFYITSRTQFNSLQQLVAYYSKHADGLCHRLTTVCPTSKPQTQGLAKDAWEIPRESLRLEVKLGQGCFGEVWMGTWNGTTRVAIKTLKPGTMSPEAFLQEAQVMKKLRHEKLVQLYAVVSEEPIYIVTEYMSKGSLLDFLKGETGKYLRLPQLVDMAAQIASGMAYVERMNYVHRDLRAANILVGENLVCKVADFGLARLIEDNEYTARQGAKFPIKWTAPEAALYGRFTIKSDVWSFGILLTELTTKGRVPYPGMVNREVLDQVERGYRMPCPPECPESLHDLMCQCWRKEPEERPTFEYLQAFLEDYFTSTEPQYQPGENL
T4 sequence (P09769 263-516 limits assumed, change not shown): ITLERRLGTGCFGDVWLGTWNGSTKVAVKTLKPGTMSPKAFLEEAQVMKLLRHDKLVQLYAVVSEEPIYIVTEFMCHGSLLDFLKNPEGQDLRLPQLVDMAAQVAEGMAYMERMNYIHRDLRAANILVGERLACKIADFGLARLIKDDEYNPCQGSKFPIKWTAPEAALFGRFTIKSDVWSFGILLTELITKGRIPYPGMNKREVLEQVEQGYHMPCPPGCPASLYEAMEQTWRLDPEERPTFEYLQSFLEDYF
T7 sequence (P35916 845-1173 limits assumed, change not shown): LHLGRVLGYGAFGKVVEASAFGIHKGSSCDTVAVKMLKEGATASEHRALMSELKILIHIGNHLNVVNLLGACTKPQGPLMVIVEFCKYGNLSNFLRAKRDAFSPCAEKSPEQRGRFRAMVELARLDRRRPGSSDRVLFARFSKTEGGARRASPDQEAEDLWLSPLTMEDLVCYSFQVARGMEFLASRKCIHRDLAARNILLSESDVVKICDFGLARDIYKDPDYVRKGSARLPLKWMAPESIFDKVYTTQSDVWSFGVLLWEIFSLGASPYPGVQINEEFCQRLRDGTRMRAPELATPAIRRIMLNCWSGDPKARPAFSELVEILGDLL
Chain of Dyrk3 (O43781 whole entry, species assumed): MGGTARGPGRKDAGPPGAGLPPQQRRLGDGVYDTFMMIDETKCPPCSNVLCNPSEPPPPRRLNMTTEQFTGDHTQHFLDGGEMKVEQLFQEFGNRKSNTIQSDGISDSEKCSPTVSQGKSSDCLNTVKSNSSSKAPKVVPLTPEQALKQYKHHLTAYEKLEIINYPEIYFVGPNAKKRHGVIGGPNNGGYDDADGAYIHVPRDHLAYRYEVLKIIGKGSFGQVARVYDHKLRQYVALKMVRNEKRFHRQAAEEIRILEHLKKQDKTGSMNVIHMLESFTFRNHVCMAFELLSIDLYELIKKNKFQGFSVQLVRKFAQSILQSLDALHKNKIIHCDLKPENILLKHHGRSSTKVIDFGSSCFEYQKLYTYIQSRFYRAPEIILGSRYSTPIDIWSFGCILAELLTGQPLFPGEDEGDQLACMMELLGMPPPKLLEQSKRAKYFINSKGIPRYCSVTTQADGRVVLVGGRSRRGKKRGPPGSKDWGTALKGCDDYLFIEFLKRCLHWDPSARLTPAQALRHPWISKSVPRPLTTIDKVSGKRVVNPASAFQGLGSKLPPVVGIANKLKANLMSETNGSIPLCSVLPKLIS
T6 sequence (P35968 834-1162 limits assumed, change not shown): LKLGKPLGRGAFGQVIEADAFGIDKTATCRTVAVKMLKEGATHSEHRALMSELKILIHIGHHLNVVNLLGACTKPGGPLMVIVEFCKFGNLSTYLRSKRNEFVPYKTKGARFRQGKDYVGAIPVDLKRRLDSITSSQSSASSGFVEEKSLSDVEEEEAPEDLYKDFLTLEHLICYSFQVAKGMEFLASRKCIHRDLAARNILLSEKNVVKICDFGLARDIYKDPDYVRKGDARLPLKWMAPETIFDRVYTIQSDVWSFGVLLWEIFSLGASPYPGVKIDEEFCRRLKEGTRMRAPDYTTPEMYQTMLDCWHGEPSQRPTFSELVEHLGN
Chain of RAF1_4_CR (P04049 whole entry): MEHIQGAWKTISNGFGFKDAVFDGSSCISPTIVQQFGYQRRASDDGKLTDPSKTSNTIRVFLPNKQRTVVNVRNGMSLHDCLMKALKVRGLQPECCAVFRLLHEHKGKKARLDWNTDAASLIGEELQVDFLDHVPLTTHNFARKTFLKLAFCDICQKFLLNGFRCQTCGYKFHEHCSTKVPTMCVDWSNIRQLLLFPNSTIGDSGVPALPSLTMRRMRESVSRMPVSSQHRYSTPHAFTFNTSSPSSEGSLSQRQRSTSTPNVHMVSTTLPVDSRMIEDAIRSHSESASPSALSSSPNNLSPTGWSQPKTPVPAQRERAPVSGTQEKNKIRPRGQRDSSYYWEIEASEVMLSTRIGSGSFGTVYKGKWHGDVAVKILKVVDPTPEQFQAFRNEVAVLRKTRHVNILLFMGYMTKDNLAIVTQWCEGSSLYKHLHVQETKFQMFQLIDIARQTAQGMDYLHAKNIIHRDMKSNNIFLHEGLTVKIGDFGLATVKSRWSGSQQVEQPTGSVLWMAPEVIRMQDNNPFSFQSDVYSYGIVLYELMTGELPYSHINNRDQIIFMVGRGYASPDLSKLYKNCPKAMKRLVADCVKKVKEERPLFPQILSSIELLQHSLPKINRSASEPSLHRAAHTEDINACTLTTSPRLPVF
Chain of cRaf (P04049 whole entry, species assumed): as the sequence (P04049 whole entry) above

CNC(=O)c1cc(Oc2ccc3nc(NC4CCCCC4O)sc3c2)ccn1 (stereo not drawn) [Compound (I)]
IC50 [1]: > 10 µM
EC50 [2]: > 10 µM
EC50 [3]: > 10 µM
IC50 [4]: > 25 µM
IC50 [5]: > 10 µM
CSF-1 mediated macrophage survival [6]: significantly affects
IL-34 mediated macrophage survival [6]: significantly affects
EC50 [7]: > 10 µM
EC50 [8]: > 10 µM
EC50 [9]: > 10 µM
EC50 [10]: > 10 µM
IC50 [11]: > 10 µM
EC50 [12]: > 10 µM
IC50 [13]: > 10 µM
EC50 [14]: > 10 µM
